Here are results for six molecules from PMC8178125, “The acyl chains of phosphoinositide PIP3 alter the structure and function of nuclear receptor steroidogenic factor-1” (Journal of Lipid Research, 2021).

5Fam = 5-carboxyfluorescein label on the N-terminus

One experiment has as its target T1, SF-1 LBD (Homo sapiens, UniProt Q13285, C247S/C412S).
T1 construct: human SF-1 LBD comprising amino acids 218–461 of human SF-1; 6X-HIS (N, cleaved yes); TEV site (N, cleaved yes); made in house; host or cells: E. coli BL21 (DE3)
As to the kind of experiment: Limited trypsin proteolytic sensitivity assay of SF-1 LBD bound to PIP3. Particulars: trypsin:SF-1 1:500 (w/w), 25°C, 60 min time course; compared with PIP3(16:0/16:0). Here is the method: Protease selection for limited digestion was carried out by adding elastase, thermolysin, proteinase K, or trypsin to SF-1 LBD in a protease:SF-1 LBD ratio of 1:500 (w/w), followed by incubation at 30 or 60 min and 10% SDS-PAGE followed by Coomassie stain. For determination of SF-1 proteolysis bound by PIP3(16:0/16:0) or PIP3(18:1/18:1), equal amounts of the purified SF-1 LBD used for crystallization without coactivator peptide were incubated with PIP3(16:0/16:0) or PIP3(18:1/18:1) at a protein:PIP3 molar ratio of 1:10, overnight at room temperature, a procedure determined in previous publications to result in complete PIP3 binding to SF-1 LBD. Limited proteolysis analysis was carried out by adding trypsin (Sigma) to SF1-PIP3 in a trypsin:SF-1 ratio of 1:500 (w/w), followed by incubation at 25°C for a 60 min time course. […] Gels were scanned, and the band intensities quantified using Image J (NIH). […]
(also on this page, place not known: Time (min) Relative percentage protection 0.0002*** Supplemental Figure S1:SF-1 dioleoyl is dipalmitoyl PIP3(16:0/16:0). Coomassie-stained trypsin-digested PIP3 species, trypsin treated 60-minute time course, reactions boiled run gel. B.Relative quantitation expressed percentage signal from in lane, quantified using graph comparing either PIP3(16:0/16:0) indicated PIP3(18:1/18:1) indicated trypsin Sidak’smultiple n=3). […]

A further experiment deals with T2, human SF-1 LBD (2CS) (Homo sapiens, UniProt Q13285, C247S/C412S).
T2 construct: human SF-1 LBD (218–461) 2CS “Cys-lite” mutant (C247S and C412S); 6X-HIS (N, cleaved yes); TEV site (N, cleaved yes); made in house; host or cells: E. coli BL21 (DE3); peptide purchased from New England Peptide
As to the kind of experiment: Fluorescence polarization coactivator binding assay: 5Fam-labeled PGC1α peptide binding to lipid-complexed SF-1 LBD. Particulars: SF-1 bound to dioleoyl vs dipalmitoyl PIP3. The text has this: The same human SF-1 LBD (2CS) construct used for crystallization was complexed with dioleoyl PIP3 and subjected to anion exchange chromatography to separate PIP3-bound species from bacterial phospholipid-bound species. PIP3-bound SF-1 elutes during anion exchange chromatography at higher ionic strength than bacterial phospholipid-bound SF-1 because of the negatively charged phosphates on the PIP3 headgroup. The PIP3-bound and bacterial phospholipid–bound fractions were pooled and concentrated as above, then serially diluted into assay buffer (20 mM Hepes [7.5], 150 mM NaCl) in black-walled 384-well nonprotein binding plates, with 50 μM SF-1 LBD as the highest concentration and a constant 25 μL volume in each well. Reproducibility in the FP assay critically relies on using nonprotein binding plates. To each well, an equal volume of N-terminal 5Fam-labeled PGC1α co-activator peptide (5Fam-EEPSLLKKLLLAPA-OH) was added to a final concentration of 100 nM fluorescently labeled peptide (purchased from New England Peptide). After a 1-h incubation nutating at room temperature in the dark, fluorescence polarization was measured on the Biotek Neo Plate reader at the Vanderbilt High-throughput Screening Center. Data were fit to a standard one-site binding model in GraphPad Prism, and all data represent at least three independent replicates.
On the technique in general: In fluorescence polarisation assays a small probe gives low polarisation when free and higher when bound to something large.

Experiment [1] addresses T3, human apo-SF-1 LBD (Homo sapiens, UniProt Q13285, C247S/C412S).
T3 construct: human SF-1 LBD comprising amino acids 218–461 of human SF-1; 6X-HIS (N, cleaved yes); TEV site (N, cleaved yes); made in house; host or cells: E. coli BL21 (DE3)
Kind of experiment: Native gel (electromobility) shift assay of equilibrium phosphoinositide binding to apo-SF-1 LBD. The conditions noted are these: for Kd: apo-SF-1 LBD 1 μM, 37°C 1 h, 1-site binding model, SEM, read-out: apparent Kd of phosphoinositide binding to SF-1 LBD. Here is the method:
Apparent Kd interaction data of phosphoinositides was determined on human apo-SF-1 LBD by a previously described native gel shift assay ([21]) to monitor equilibrium binding to each phosphoinositide. Briefly, apo-SF-1 ligand binding domain was generated using an on-column washout procedure to remove bound phospholipid, wherein pure SF-1 bound to dipalmitoyl PIP3 was loaded onto a Mono Q column and washed with 1.0 L of 20 mM Hepes (8.0), 1 mM EDTA with 2 mM CHAPS at 2 ml/min to remove all bound phospholipid from SF-1 by on-column dilution. The buffer was then changed into 20 mM Hepes (8.0), 1 mM EDTA to remove detergents, and apo-SF-1 eluted using a ammonium acetate gradient, pooled, protein concentration quantitated, and then used in the phosphoinositide binding assay. For the phosphoinositide binding assay, each phosphoinositide was resuspended in water, sonicated, diluted, and stored under nitrogen at 4°C. Phosphoinositides were always re-sonicated immediately before use in binding assays. Two microliters of serially diluted phosphoinositide were added to binding reactions of 25 μl total volume, containing 1 μM final concentration of apo-SF-1 LBD in 20 mM Hepes (8.0), 1 mM EDTA, and 10 mM ammonium acetate in 200 μl polypropylene PCR strip tubes. Binding reactions were incubated at 37°C for 1 h in a PCR thermocycler with a heated reaction cover, the reaction mixed with 3 μl native loading buffer (40% glycerol, 0.005% Ponceau S) and run on a 4% to 16% polyacrylamide Bis-Tris NativePage™ gel (Invitrogen). After fixation and silver staining (BioRad), gels were scanned, the phosphoinositide-shifted band quantitated using NIH image, and apparent Kd determined by nonlinear curve fit to a single-site binding model in GraphPad Prism. Data represent at least three independent replicates.

Experiment [2] concerns the target T3, human apo-SF-1 LBD. The arrangement: method as in PMID 25288771. The conditions noted are these: previous work; cited from earlier work.
Experiment [3] has as its target T4, human SF-1 LBD (218-461) 2CS Cys-lite mutant (C247S and C412S) (human, UniProt Q13285 218-461, C247S | C412S).
T4 construct: The His tag was removed with TEV; also called steroidogenic factor-1; NR5A1; source: complexed with dioleoyl PIP3, dipalmitoyl PIP3 or co-purifying bacterial phospholipid; not shown: His6, N-terminal, cleaved
Kind of experiment: fluorescence polarisation; SF-1 LBD complexed with dioleoyl PIP3(18:1/18:1), serially diluted from 50 μM; 100 nM 5Fam-labeled peptide; 20 mM Hepes (7.5), 150 mM NaCl; 1 h at room temperature; one-site binding model. Particulars: both partners purified.

Experiment [4] addresses T4, human SF-1 LBD (218-461) 2CS Cys-lite …. As to the kind of experiment: fluorescence polarisation; SF-1 LBD complexed with dipalmitoyl PIP3(16:0/16:0); 100 nM 5Fam-labeled peptide; 20 mM Hepes (7.5), 150 mM NaCl; 1 h at room temperature; one-site binding model; apparent. Particulars: both partners purified.
The target in experiment [5] is T5, human SF-1 ligand binding domain (218–461) 2CS Cys-lite mutant (C247S and C412S) (human, UniProt Q13285 218-461, C247S | C412S).
T5 construct: also called SF-1 LBD; SF-1 LBD (2CS); not shown: His6, N-terminal, cleaved
As to the kind of experiment: fluorescence polarisation; SF-1 LBD bound to bacterial phospholipid serially diluted from 50 uM; 100 nM 5Fam-PGC1α peptide; 20 mM Hepes (7.5), 150 mM NaCl; 1 h at room temperature; one-site binding model; apparent Kd. Particulars: both partners purified.

For experiment [6], the target named is T4, human SF-1 LBD (218-461) 2CS Cys-lite …. Kind of experiment: crystal structure; SF-1 LBD complexed with dioleoyl PIP3(18:1/18:1), then with 3-fold molar excess of PGC1α peptide; sitting drop, 20% PEG 3350, 0.2 M magnesium formate, 20°C. Particulars: both partners purified.

T4 sequence (Q13285 218-461 C247S/C412S): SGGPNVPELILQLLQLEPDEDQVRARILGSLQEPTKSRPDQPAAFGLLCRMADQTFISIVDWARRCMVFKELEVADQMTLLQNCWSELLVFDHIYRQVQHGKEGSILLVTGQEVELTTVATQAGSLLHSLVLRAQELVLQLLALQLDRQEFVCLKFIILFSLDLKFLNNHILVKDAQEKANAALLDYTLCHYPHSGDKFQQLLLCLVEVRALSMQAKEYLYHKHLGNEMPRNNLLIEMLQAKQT
T3 sequence (Q13285 218-461 C247S/C412S): as above
T2 sequence (Q13285 218-461 C247S/C412S): as above
T1 sequence (Q13285 218-461 C247S/C412S): as above
T5 sequence (Q13285 218-461 C247S/C412S): as above

With `CCCCCCCC/C=C\CCCCCCCC(=O)OC[C@H](COP(=O)(O)OC1C(O)C(OP(=O)(O)O)C(OP(=O)(O)O)C(OP(=O)(O)O)C1O)OC(=O)CCCCCCC/C=C\CCCCCCCC` (stereo partly drawn) [dioleoyl PIP3, 1,2-di-(9Z-octadecenoyl)-sn-glycero-3-[phosphoinositol-3,4,5-trisphosphate]], the “trypsin protease sensitivity of SF-1 bound to the lipid” value at SF-1 LBD is on record as “increased trypsin protease sensitivity”. In addition, the “fold poorer affinity of PGC1α coactivator peptide for SF-1 compared with dipalmitoyl PIP3” value at human SF-1 LBD (2CS) is recorded as 6 fold; at human SF-1 LBD (2CS) (listed as Dioleoyl PIP3(18:1/18:1)), not below 5 fold. In addition, the Kd at human apo-SF-1 LBD [1] came to 71 ± 10 nM. Further, on human apo-SF-1 LBD [1] (dioleoyl vs dipalmitoyl PIP3 binding to SF-1 LBD), the “fold lower apparent Kd than dipalmitoyl (16:0/16:0) PIP3” value is given as 3 fold.
Turning to `CCCCCCCCCCCCCCCC(=O)OCC(COP(=O)(O)OC1C(O)C(O)C(OP(=O)(O)O)C(OP(=O)(O)O)C1O)OC(=O)CCCCCCCCCCCCCCC` (stereo not drawn) [dipalmitoyl (16:0/16:0) PIP2], the Kd on human apo-SF-1 LBD [1] was determined as 348 ± 42 nM.
As for `CCCCCCCCCCCCCCCC(=O)OC[C@H](COP(=O)(O)OC1C(O)C(OP(=O)(O)O)C(OP(=O)(O)O)C(OP(=O)(O)O)C1O)OC(=O)CCCCCCCCCCCCCCC` (stereo partly drawn) [dipalmitoyl PIP3, 1,2-dipalmitoyl-sn-glycero-3-[phosphoinositol-3,4,5-triphophosate]], the “affinity for SF-1” value at human apo-SF-1 LBD [2] was “nanomolar affinity”. Also, on human apo-SF-1 LBD [1], the Kd was found to be 130 ± 14 nM.

B1: N-terminal 5Fam-labeled PGC1α co-activator peptide (5Fam-EEPSLLKKLLLAPA-OH) (peptide)
peptide: 5Fam-EEPSLLKKLLLAPA-OH
notes: also called fluorophore-labeled PGC1α peptide; fluorescently labeled peptide; source: synthetic peptide, bought: New England Peptide
As to B1, the Kd in experiment [3] was more than 42000 nM; in experiment [4] it was 7700 ± 1400 nM.

B2: N-terminal 5Fam-labeled PGC1α co-activator peptide (5Fam-EEPSLLKKLLLAPA-OH) (peptide)
peptide: 5Fam-EEPSLLKKLLLAPA-OH
notes: the validation report numbers the modelled residues P141-A152 (D2:p5); also called PGC1α peptide; fluorophore-labeled PGC1α peptide; source: synthetic peptide; bought: New England Peptide
Turning to B2, the Kd in experiment [5] turned out to be 6800 ± 2000 nM.

B3: synthetic peptide representing the human PGC1α co-activator (H3N-EEPSLLKKLLLAPA-OH) (peptide)
peptide: H-EEPSLLKKLLLAPA-OH
notes: Unlabelled peptide used for co-crystallisation, free N- and C-termini as printed; also called PGC1α peptide; source: synthetic peptide, bought: New England Peptide
With B3, the binding result in experiment [6] is reported as “binds”.
